For 17 molecules, IC50 results are on record in patent US11878970B2, “Allosteric chromenone inhibitors of phosphoinositide 3-kinase (PI3K) for the treatment of disease” (Petra Pharma Corporation, priority 2021, dated 2024).

The term IC50 denotes the concentration at which inhibition is half-maximal.

Structures are written as SMILES.

Test [1] addresses T1, PI3K-α (PIK3CA) H1047R mutant, p110α/p85α complex (Homo sapiens, UniProt P42336, H1047R).
T1 construct: Recombinant, catalytically active human full length PIK3KA Wild-type and H1047R mutant; 6×His (N); purchased EMD Millipore Sigma 14-792M
Put plainly: PI3K-alpha kinase (PIK3CA) biochemical activity, ADP-Glo, H1047R mutant. An outline of the steps: (§1)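 ADP formation measured by ADP-Glo luminescence after reaction at 27 °C to about 10% ATP turnover, using 20 uM ATP, 50 uM PIP2diC8 or soy PI lipid, HEPES pH 7.4 with MgCl2. Enzyme (1-5 nM WT or H1047R p110α/p85α) and compound preincubated 1 h first; 10-point 1:3 curves fitted four-parameter for IC50.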

Test [2] concerns the target PI3K-α (PIK3CA) in MDA-MB-453 cells (Homo sapiens, UniProt P42336). Put plainly: PI3K-alpha kinase (PIK3CA) in vitro cell based assay, MDA-MB-453 cells, SureFire Ultra AlphaLisa. Particulars: read-out: PI3K-α (PIK3CA) in vitro cell based assay IC50. How it is done: PI3K-Alpha Kinase (PIK3CA) Activity In Vitro Cell Based Assay and Determining IC50 Values for Inhibitors
The MDA-MB-453 (ATCC-HTB-131) cell line was obtained from the American Type Culture Collection (Manassas, VA). Cells were maintained in Dulbecco's Modified Eagle Media (DMEM, Gibco 11965-092) supplemented with 10% Fetal Bovine Serum, heat inactivated (FBS HI, Gibco 10082-147), 1× non-essential amino acids (NEAA, Gibco 11140-050), and 1 mM sodium pyruvate (Gibco 11360-070). Cultures were maintained in a humidified incubator at 37° C. under 5% CO2/95% air.
For compound testing in 0% FBS, MDA-MB-453 cells were seeded at a density of 1.5×10^4 cells per well in white 384-well plates in 20 μl of Minimum Essential Media (MEM) assay media with 1×NEAA, 1 mM sodium pyruvate, and 1 μg/mL human insulin (Sigma I9278). Compounds dissolved in 10 mM stock solutions in DMSO were serially diluted 1:3 in DMSO to generate a 10-point dilution series and plated using an acoustic liquid handler system (Echo 550 Series Liquid Handler, Labcyte). A 5× intermediate compound dilution plate in MEM with 1×NEAA and 1 mM sodium pyruvate (150 μM starting compound concentration in 1.5% DMSO) was then prepared. Five μl of the intermediate serially diluted compounds were added to the cell plate to final concentrations ranging from […] in 0.3% DMSO. 0.3% DMSO alone was used to establish the maximum (MAX) signal and GDC-0032 at a final concentration of 1 μM was used as a reference compound for the minimum (MIN) signal. After 3 hours treatment, the medium was removed, and the cells lysed in 10 μL of 1× SureFire Lysis buffer with shaking for 10 minutes at room temperature. The Acceptor Mix (Reaction Buffer 1+Reaction Buffer 2+Activation Buffer+SureFire Ultra Acceptor Beads) was prepared by diluting Activation buffer 25-fold in combined Reaction Buffer 1 and Reaction Buffer 2. The Acceptor beads were diluted 50-fold in the combined Reaction Buffers. Five μL of Acceptor Mix was added to each well, the plate was sealed and covered with foil and incubated for 1 hour at room temperature. The Donor Mix (dilution buffer+SureFire Ultra Donor Beads) was prepared by diluting Donor Beads 50-fold in dilution buffer. Five μL of the Donor Mix was added to each well and the plate sealed and covered with foil and incubated for 1 hour at room temperature in the dark. The plates were read on a Neo2 plate reader instrument from Biotek using standard AlphaLisa settings. Compounds were tested in duplicate and the average % inhibition at each compound concentration was used to generate a single dose response curve. The data were processed using the Genedata-Screener tool. Relative IC50 values were determined using luminescence units by calculating percent inhibition with respect to the in-plate “MIN” (GDC-0032 reference control) and “MAX” (DMSO) controls. The data was analyzed using a 4-parameter nonlinear logistic equation (four-parameter logistic concentration-response curve): Y=bottom+[(top−bottom)/1+(X/IC50)slope] where Y=% inhibition, X=concentration of inhibitor, bottom=minimum value of y attained by curve-fit, top=maximum value of y attained by curve-fit and slope=steepness of curve at the IC50. % Inhibition=[(signal at X−median Min)/(median Max−median Min)]×100 IC50: concentration of compound that reduces a given response (ligand binding, enzyme response) by 50%. Relative IC50: concentration giving half the compound's maximum response.
(Bead proximity is the source of the signal in Alpha formats.)

Test [3] deals with T2, PI3K-α (PIK3CA) wild-type (WT), p110α/p85α complex (Homo sapiens, UniProt P42336).
T2 construct: Recombinant, catalytically active human full length PIK3KA Wild-type and H1047R mutant; 6×His (N); purchased EMD Millipore Sigma 14-602M
The test is described as follows: PI3K-alpha kinase (PIK3CA) biochemical activity, ADP-Glo, wild-type. The method in brief:
as §1
For orientation: ADP-Glo turns the ADP formed in a reaction into a luminescent signal.

[4] abbreviates: PIP2diC8 lipid substrate (footnote 1).

T1 sequence (P42336 whole entry H1047R): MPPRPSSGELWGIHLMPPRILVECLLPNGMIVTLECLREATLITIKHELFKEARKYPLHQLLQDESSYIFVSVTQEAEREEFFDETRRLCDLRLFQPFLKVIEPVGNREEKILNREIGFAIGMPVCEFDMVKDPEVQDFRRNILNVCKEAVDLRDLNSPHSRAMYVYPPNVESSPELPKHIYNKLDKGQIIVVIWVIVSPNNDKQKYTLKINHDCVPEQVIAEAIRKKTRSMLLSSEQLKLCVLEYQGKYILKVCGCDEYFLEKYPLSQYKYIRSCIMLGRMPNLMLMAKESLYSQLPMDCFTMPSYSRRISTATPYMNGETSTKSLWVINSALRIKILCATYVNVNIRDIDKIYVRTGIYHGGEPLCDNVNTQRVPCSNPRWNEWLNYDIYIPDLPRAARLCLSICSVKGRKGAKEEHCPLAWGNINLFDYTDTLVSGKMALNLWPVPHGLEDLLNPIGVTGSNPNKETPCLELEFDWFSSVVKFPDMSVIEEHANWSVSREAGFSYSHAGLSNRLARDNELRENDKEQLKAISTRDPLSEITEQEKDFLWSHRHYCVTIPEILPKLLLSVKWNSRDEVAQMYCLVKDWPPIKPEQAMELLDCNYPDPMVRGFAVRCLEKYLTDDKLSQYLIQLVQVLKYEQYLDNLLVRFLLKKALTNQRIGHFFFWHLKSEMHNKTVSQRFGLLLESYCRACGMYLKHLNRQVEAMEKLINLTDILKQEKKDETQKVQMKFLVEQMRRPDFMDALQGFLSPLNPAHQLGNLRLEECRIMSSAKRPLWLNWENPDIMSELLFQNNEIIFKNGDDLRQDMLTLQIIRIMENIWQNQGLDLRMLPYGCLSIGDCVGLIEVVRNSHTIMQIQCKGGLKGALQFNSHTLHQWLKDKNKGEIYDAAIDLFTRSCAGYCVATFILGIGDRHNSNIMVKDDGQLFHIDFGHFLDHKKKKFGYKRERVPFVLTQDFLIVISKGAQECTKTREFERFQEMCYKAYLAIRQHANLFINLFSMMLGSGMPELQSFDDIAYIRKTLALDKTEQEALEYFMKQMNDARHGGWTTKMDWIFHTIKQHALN
T1 sequence (P27986 whole entry partner): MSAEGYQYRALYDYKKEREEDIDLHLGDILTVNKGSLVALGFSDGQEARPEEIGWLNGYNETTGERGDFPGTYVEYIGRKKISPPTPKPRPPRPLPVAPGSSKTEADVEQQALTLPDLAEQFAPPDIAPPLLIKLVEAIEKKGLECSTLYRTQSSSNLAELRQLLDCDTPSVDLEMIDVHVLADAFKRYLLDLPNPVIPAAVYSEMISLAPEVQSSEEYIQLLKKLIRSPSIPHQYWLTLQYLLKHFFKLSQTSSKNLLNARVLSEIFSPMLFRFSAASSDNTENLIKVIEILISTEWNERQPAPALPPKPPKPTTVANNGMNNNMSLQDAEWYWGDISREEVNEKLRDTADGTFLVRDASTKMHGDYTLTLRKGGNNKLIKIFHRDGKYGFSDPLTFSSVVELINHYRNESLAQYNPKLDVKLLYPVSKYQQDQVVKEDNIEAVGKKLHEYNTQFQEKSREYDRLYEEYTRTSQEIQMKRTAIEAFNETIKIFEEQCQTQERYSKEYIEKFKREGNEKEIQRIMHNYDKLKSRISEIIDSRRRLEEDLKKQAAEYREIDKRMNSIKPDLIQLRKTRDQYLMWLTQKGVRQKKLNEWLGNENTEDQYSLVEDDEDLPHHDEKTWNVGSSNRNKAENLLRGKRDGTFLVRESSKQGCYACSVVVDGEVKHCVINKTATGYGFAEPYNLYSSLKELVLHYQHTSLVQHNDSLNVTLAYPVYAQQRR
Chain of PI3K-α (PIK3CA) in MDA-MB-453 cells (P27986 2-724): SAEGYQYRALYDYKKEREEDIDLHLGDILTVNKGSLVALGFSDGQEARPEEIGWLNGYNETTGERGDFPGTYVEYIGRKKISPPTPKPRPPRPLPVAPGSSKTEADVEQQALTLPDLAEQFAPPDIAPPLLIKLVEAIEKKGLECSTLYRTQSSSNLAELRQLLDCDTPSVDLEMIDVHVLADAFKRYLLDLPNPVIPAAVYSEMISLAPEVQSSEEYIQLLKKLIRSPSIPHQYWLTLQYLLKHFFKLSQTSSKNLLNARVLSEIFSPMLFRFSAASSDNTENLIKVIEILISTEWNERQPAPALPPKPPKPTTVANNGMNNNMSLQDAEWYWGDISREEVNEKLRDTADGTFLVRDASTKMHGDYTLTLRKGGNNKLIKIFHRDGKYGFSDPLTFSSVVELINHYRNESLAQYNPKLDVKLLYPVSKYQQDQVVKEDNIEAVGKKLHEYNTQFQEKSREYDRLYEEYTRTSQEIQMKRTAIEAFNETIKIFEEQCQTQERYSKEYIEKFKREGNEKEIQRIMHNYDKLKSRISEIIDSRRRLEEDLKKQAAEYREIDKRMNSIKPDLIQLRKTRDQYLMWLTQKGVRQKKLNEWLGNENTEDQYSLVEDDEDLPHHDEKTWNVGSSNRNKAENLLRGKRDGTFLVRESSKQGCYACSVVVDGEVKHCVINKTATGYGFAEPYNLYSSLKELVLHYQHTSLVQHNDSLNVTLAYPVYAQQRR
Chain of PI3K-α (PIK3CA) in MDA-MB-453 cells (P42336 whole entry): as the sequence (P42336 whole entry H1047R) above, with R1047H counted along it

For `Cc1cc(C(C)Nc2ccccc2C(=O)O)c2oc(-c3ccc4nn(C)cc4c3)c(C)c(=O)c2c1` (single isomer, unassigned) [Example 91, 2-[1-[3,6-Dimethyl-2-(2-methylindazol-5-yl)-4-oxo-chromen-8-yl]ethylamino]benzoic acid], the IC50 is below 500 nM in test [1] (Soy PI lipid substrate), below 50 nM in test [2] and 500 to 1000 nM in test [3] (Soy PI lipid substrate).

Turning to `Cc1cc([C@@H](C)Nc2ccc(C(F)(F)F)nc2C(=O)O)c2oc(-c3ccc4nc(C)sc4n3)c(C)c(=O)c2c1` [Example 233, 3-[[(1R)-1-[3,6-Dimethyl-2-(2-methylthiazolo[5,4-b]pyridin-5-yl)-4-oxo-chromen-8-yl]ethyl]amino]-6-(trifluoromethyl)pyridine-2-carboxylic acid], the half-inhibitory concentration (IC50) in test [1] (Soy PI lipid substrate) was below 500 nM; in test [2], 100 to 500 nM; in test [3] (Soy PI lipid substrate), 1000 to 5000 nM.

As to `Cc1cc([C@@H](C)Nc2ccccc2C(=O)O)c2oc(-c3ccc4nc(C)oc4c3)c(C)c(=O)c2c1` [Example 261, 2-[[(1R)-1-[3,6-Dimethyl-2-(2-methyl-1,3-benzoxazol-6-yl)-4-oxo-chromen-8-yl]ethyl]amino]benzoic acid], the 50% inhibitory concentration (IC50) was below 500 nM in test [1] (Soy PI lipid substrate), below 50 nM in test [2] and 500 to 1000 nM in test [3] (Soy PI lipid substrate).

Turning to `Cc1cc(C(C)Nc2cccc(F)c2C(=O)O)c2oc(-c3cc(C)c4nn(C)cc4c3)cc(=O)c2c1` (single isomer, unassigned) [Example 190, 2-[1-[2-(2,7-Dimethylindazol-5-yl)-6-methyl-4-oxo-chromen-8-yl]ethylamino]-6-fluoro-benzoic acid], the IC50 in test [1] (Soy PI lipid substrate) is below 500 nM; in test [2], 50 to 100 nM; in test [3] (Soy PI lipid substrate) it was 500 to 1000 nM.

On to `Cc1cc(C(C)Nc2ccc(Cl)nc2C(=O)O)c2oc(-c3ccc4c(cnn4C)c3)cc(=O)c2c1` (single isomer, unassigned) [Example 217, 6-Chloro-3-[1-[6-methyl-2-(1-methylindazol-5-yl)-4-oxo-chromen-8-yl]ethylamino]pyridine-2-carboxylic acid], for which the IC50 was 1000 to 5000 nM in test [1] (Soy PI lipid substrate), above 500 nM in test [2] and 1000 to 5000 nM in test [3] (Soy PI lipid substrate).

With `Cc1cc([C@@H](C)Nc2ccc(Cl)cc2C(=O)O)c2oc(-c3ccc4nn(C)cc4c3)c(C)c(=O)c2c1` [Example 258, 5-Chloro-2-[[(1R)-1-[3,6-dimethyl-2-(2-methylindazol-5-yl)-4-oxo-chromen-8-yl]ethyl]amino]benzoic acid], the IC50 was below 500 nM in test [1] (Soy PI lipid substrate), below 50 nM in test [2] and 500 to 1000 nM in test [3] (Soy PI lipid substrate).

Take `Cc1cc(C(C)Nc2ccccc2C(=O)O)c2oc(-c3ccc4cn[nH]c4c3)cc(=O)c2c1` (single isomer, unassigned) [Example 63, 2-[1-[2-(1H-Indazol-6-yl)-6-methyl-4-oxo-chromen-8-yl]ethylamino]benzoic acid]: the IC50 was below 500 nM in test [1] (Soy PI lipid substrate), below 50 nM in test [2] and 500 to 1000 nM in test [3] (Soy PI lipid substrate).

As to `Cc1cc(C(C)Nc2ccccc2C(=O)O)c2oc(-c3cc4ccncc4o3)cc(=O)c2c1` (single isomer, unassigned) [Example 40, 2-[1-(2-Furo[2,3-c]pyridin-2-yl-6-methyl-4-oxo-chromen-8-yl)ethylamino]benzoic acid], the IC50 in test [1] (Soy PI lipid substrate) was 1000 to 5000 nM; in test [2], 100 to 500 nM; in test [3] (Soy PI lipid substrate), 5000 to 10000 nM.

With `Cc1cc(C(C)Nc2ccccc2C(=O)O)c2oc(-c3ccc4[nH]nc(C)c4c3)cc(=O)c2c1` (single isomer, unassigned) [Example 61, 2-[1-[6-Methyl-2-(3-methyl-1H-indazol-5-yl)-4-oxo-chromen-8-yl]ethylamino]benzoic acid], the IC50 in test [1] (Soy PI lipid substrate) is below 500 nM; in test [2], 50 to 100 nM; in test [3] (Soy PI lipid substrate), 500 to 1000 nM.

Turning to `Cc1cc(C(C)Nc2ccc(Cl)nc2C(=O)O)c2oc(-c3cc(C)c4nn(C)cc4c3)cc(=O)c2c1` (single isomer, unassigned) [Example 188, 6-Chloro-3-[1-[2-(2,7-dimethylindazol-5-yl)-6-methyl-4-oxo-chromen-8-yl]ethylamino]pyridine-2-carboxylic acid], the IC50 in test [1] (Soy PI lipid substrate) was below 500 nM; in test [2] it was below 50 nM; in test [3] (Soy PI lipid substrate) it was 500 to 1000 nM.

With `CC(Nc1ccccc1C(=O)O)c1cc(F)cc2c(=O)cc(-c3ccc4nn(C)cc4c3)oc12` (single isomer, unassigned) [Example 156, 2-[1-[6-Fluoro-2-(2-methylindazol-5-yl)-4-oxo-chromen-8-yl]ethylamino]benzoic acid], the IC50 is 1000 to 5000 nM in test [1] (Soy PI lipid substrate), above 500 nM in test [2] and 1000 to 5000 nM in test [3] (Soy PI lipid substrate).

For `Cc1cc(C(C)Nc2ccccc2C(=O)O)c2oc(-c3cnc4nn(C)cc4c3)cc(=O)c2c1` (stereo not drawn) [Example 9, 2-[1-[6-Methyl-2-(2-methylpyrazolo[3,4-b]pyridin-5-yl)-4-oxo-chromen-8-yl]ethylamino]benzoic acid], the IC50 was below 500 nM in test [1] (setting [4]), above 500 nM in test [2] and 500 to 1000 nM in test [3] (setting [4]).

`Cc1cc([C@@H](C)Nc2ccc(F)cc2C(=O)O)c2oc(-c3ccc4cnn(C)c4c3)cc(=O)c2c1` [Example 238, 5-Fluoro-2-[[(1R)-1-[6-methyl-2-(1-methylindazol-6-yl)-4-oxo-chromen-8-yl]ethyl]amino]benzoic acid]: the IC50 is below 500 nM in test [1] (Soy PI lipid substrate), below 50 nM in test [2] and below 500 nM in test [3] (Soy PI lipid substrate).

In the case of `Cc1cc(C(C)Nc2ccc(Cl)nc2C(=O)O)c2oc(-c3ccc4cnn(C)c4c3)cc(=O)c2c1` (single isomer, unassigned) [Example 219, 6-Chloro-3-[1-[6-methyl-2-(1-methylindazol-6-yl)-4-oxo-chromen-8-yl]ethylamino]pyridine-2-carboxylic acid], the IC50 in test [1] (Soy PI lipid substrate) was 1000 to 5000 nM; in test [2] it was above 500 nM; in test [3] (Soy PI lipid substrate), 1000 to 5000 nM.

On to `Cc1cc([C@@H](C)Nc2cccnc2C(=O)O)c2oc(-c3nn(C)c4ccccc34)c(C)c(=O)c2c1` [Example 205, 3-[[(1R)-1-[3,6-Dimethyl-2-(1-methylindazol-3-yl)-4-oxo-chromen-8-yl]ethyl]amino]pyridine-2-carboxylic acid], for which the concentration for half-maximal inhibition (IC50) in test [1] (Soy PI lipid substrate) is 1000 to 5000 nM; in test [2] it was 50 to 100 nM; in test [3] (Soy PI lipid substrate) it was above 10000 nM.

Consider `Cc1cc(C(C)Nc2ccccc2C(=O)O)c2oc(-c3ccc4nn(C)cc4c3)cc(=O)c2c1` (single isomer, unassigned) [Example 8, 2-[1-[6-Methyl-2-(2-methylindazol-5-yl)-4-oxo-chromen-8-yl]ethylamino]benzoic acid], for which the IC50 was below 500 nM in test [1] (Soy PI lipid substrate), below 50 nM in test [2] and 500 to 1000 nM in test [3] (Soy PI lipid substrate).

`Cc1cc([C@@H](C)Nc2cccnc2C(=O)O)c2oc(-c3ccc4nc(C)sc4n3)c(C)c(=O)c2c1` [Example 243, 3-[[(1R)-1-[3,6-Dimethyl-2-(2-methylthiazolo[5,4-b]pyridin-5-yl)-4-oxo-chromen-8-yl]ethyl]amino]pyridine-2-carboxylic acid]: the IC50 in test [1] (Soy PI lipid substrate) was in the range of 1000 to 5000 nM; in test [2], 100 to 500 nM; in test [3] (Soy PI lipid substrate) it was 1000 to 5000 nM.
